Results as given in patent publication EP4436582B1, “2-METHOXYESTRADIOL FOR USE IN THE TREATMENT OF MASTOCYTOSIS” (Gdanski Uniwersytet Medyczny, priority 2021, dated 2023).

Legend:
[1] = test system: HMC 1.1 line (containing the p.V560G mutation)
Protocol: (§1) Used in the research were four mastocyte cell lines: • HMC-1.1 containing the pV560G KIT gene mutation; • HMC-1.2 containing the pG560V and pD816V KIT gene mutations, • ROSA KIT D816V containing the pD816V KIT mutation; • ROSA KIT WT - line containing no KIT mutation [21-23].
(§2) The culture was grown in a cell incubator at the temperature of 37 °C and at 5% CO2 content, in sterile conditions in a chamber with laminar flow of sterile air. Used was Iscove's Modified Dulbecco's Medium (Merck Millipore) supplemented with 1.2 mM of α-thioglycerol, 50 mL of Foetal Bovine Serum (ATCC), and 5 mL of antibiotics (PEN./STREP. 100x, Merck Millipore)
(§3) The cells were grown for 48 hours on a 96-well plate at the concentrations 5 ×10^4 cells per well for the HMC 1.1. and HMC 1.2 lines, respectively, and at the concentration of 7.5 ×10^4 cells per well for the ROSA KIT D816V and ROSA KIT WT lines.
(§4) Then, the working 2-ME solution was diluted in 100 µL of DMSO so as to obtain the final solution concentrations of 1, 5, and 10 in 100 µL of DMSO, respectively.
(§5) The control were cells treated with the corresponding amounts of DMSO with no 2-ME added.
(§6) Following 48 hours into incubation, each well was added 50 µL of the XTT solution (Roche Diagnostics GmbH, Mannheim, Germany) prepared in accordance with the manufacturer's instructions. After 4 hours of cell incubation with XTT the level of absorbance was read using the Cytation 3 Imaging Reader (BioTek, USA) at the wavelength of 560 nm.

[2] = test system: ROSA KIT WT line (without KIT gene mutation)
Protocol: as §1
(§7) The culture was grown in a cell incubator at the temperature of 37 °C and at 5% CO2 content. […] Used to grow the culture was Iscove's Modified Dulbecco's Medium (Merck Millipore) added with 50 mL of Foetal Bovine Serum (ATCC), and 5 mL of antibiotics (PEN./STREP. 100x, Merck Millipore), while the medium used for the ROSA KIT WT line was additionally supplemented with bone marrow stem cell growth factor rhSCF (R&D Systems, Minneapolis, USA) in the final concentration of 80 ng/ml.
as §3, §4, §5, §6

[3] = test system: HMC 1.1 line (containing the p.V560G mutation); test: cells; conditions: Homo sapiens, 48 h
Protocol: as §1, §2, §3, §4, §5, §6

[4] = test system: ROSA KIT WT line (without KIT gene mutation); test: cells; conditions: 48 h, read-out: inhibited the cell growth by
Protocol: as §1, §7, §3, §4, §5, §6

COc1cc2c(cc1O)CC[C@@H]1[C@@H]2CC[C@]2(C)[C@@H](O)CC[C@@H]12 [2-ME, 2-methoxyestradiol]
cytotoxicity to neoplastic MCs [1]: selectively cytotoxic | cytotoxicity to regular MCs [2]: did not demonstrate any such activity | viability at 5 µM ([3]; read-out: cell viability, HMC 1.1 line, 5 µM, 48 hours, remaining viability vs DMSO control): 63% | viability at 10 µM ([3]; read-out: cell viability, HMC 1.1 line, 10 µM, 48 hours, remaining viability vs DMSO control): 67% | inhibition at 1 µM ([3]; read-out: reduced proliferation of cells by): 29% | viability at 1 µM ([3]; read-out: viability of the cells, HMC 1.1 line, 1 µM, 48 hours, remaining viability vs DMSO control): 71% | inhibition at 1 µM [4]: 5% | inhibition at 5 µM [4]: 12% | inhibition at 10 µM [4]: 14%
